Data set [1] in a line: Cytotoxicity compared with gemcitabine (hemoglobin, WBC, neutrophil, platelet counts). In kind it is in vivo. The conditions noted are these: engrafted mice. The method, then:
FIG. 5A-5F. In vivo experiments. (FIG. 5A) The conjugates of P19 and P1 was injected via tail vein injection in Panc-1 engrafted mice. The conjugates were injected day 1, 3 and 5 for 3 or 4 weeks. Student t-test (unpaired, two-tailed) was used for statistical analysis. *t-test: […] (FIG. 5B) The photon was counter by I.V.I.S and signal changes were calculated in traceable xenoengrafted mice. (FIG. 5C) The representative images of the spectrum of IVIS 200 of each group. (FIG. 5D) Comparison of anti-tumor effect of C/EBPα-saRNA with gemcitabine in Panc-1 engrafted mice by tail vein injection. Tumor size was measured. *t-test: […] (FIG. 5E) The tumor growth inhibition of gemcitabine-resistant ASPC-1 engrafted mice by tail vein injection. Signal changes were calculated. Metastasis to ascites was measured. *t-test: […] (FIG. 5F) Comparison of cytotoxicity with gemcitabine. Hemoglobin, WBC, neutrophil and platelet were counted.

A further data set relates to pancreatic cancer. The note with it: single agent, improved from 16; cited from earlier work.
The test system of a further data set is Panc-1 engrafted mice. Put plainly: Anti-tumor effects in Panc-1 (PANC-Luc) engrafted NOD/SCID mice. The note with it: P19 conjugates 1 nmol tail vein; gemcitabine 3 mg I.P.; listed as Gemcitabine. It counts as in vivo. The protocol: To establish the traceable tumor animal models, subcutaneous implantations were performed by injecting 25 μl of a monocellular suspension containing 10^6 Panc-1 cell with luciferase expression (PANC-Luc) cells and a 25p growth factor reduced matrigel matrix (BD Biosciences, USA) under the dorsal skin of 6-week-old female NOD/SCID mice (BioLasco Co., Taiwan). The firefly luciferase fragment was inserted into the pcDNA-3.1(+) backbone encoding ampicillin resistance for selection in bacteria and neo gene for selection in mammalian cells. The recombinant constructs for stable cell line were purified using plasmid midi kit (QIAGEN, USA). PANC-1 cells were transfected with recombinant constructs for 24 h. The following day, culture medium was replaced with standard medium containing 1.2 mg/mL G418 (Merck, Germany) for stable clone selection. […] Luciferase expression was assessed using the Luciferase Assay System. […] Tumor growth was monitored by evaluating bioluminescence using the spectrum of IVIS 200 before first injection and one week after last injection. […] The mice were imaged in the spectrum of IVIS 200 and bioluminescent signals were analyzed using Living Image Software (Caliper Life Sciences, Alameda, Calif.). Tumor size was measured by ruler and calculated by the formula 0.52*length*width*width

In a further data set the test system is HepG2 cells. The conditions noted are these: HepG2, Reebye et al.; cited from earlier work.
In another data set the test system is tumor burden. The conditions noted are these: intravenous injection; cited from earlier work.

With `Nc1ccn([C@@H]2O[C@H](CO)[C@@H](O)C2(F)F)c(=O)n1` [gemcitabine, 4-amino-1-(2-deoxy-2,2-difluoro-β-D-erythro-pentofuranosyl)pyrimidin-2(1H)-on], the “cytotoxicity (hemoglobin, WBC, neutrophil, platelet)” value in data set [1] is “cytotoxicity such as reduction of hemoglobin and neutrophils”; in data set [1] (listed as Gemcitabine), “cytotoxicity on RBCs and neutrophils”. Also, in the data set on pancreatic cancer, the 1-year survival rate was 19%. In addition, in the data set on Panc-1 engrafted mice, the “anti-tumor effects compared with PBS group” value is reported as “failed to reduce tumor growth”.

As for “C/EBPα-saRNA: saRNA targeting CCAAT/enhancer-binding protein-α; sense and antisense strands AW1, SEQ ID NO:22/23 (sense CGGUCAUUGUCACUGGUCAUU; antisense UGACCAGUGACAAUGACCGUU; listed as RNA, chemistry not fully specified)”, the cell proliferation entry in the data set with HepG2 cells is “decreases cell proliferation in HepG2 cells”. Also, the tumor burden entry in the data set on tumor burden was “decreased tumor burden”.
